Laboratory results reported in patent publication US7074834B2, “Long acting, reversible veterinary sedative and analgesic and method of use” (University of Kentucky Foundation, priority 2000, dated 2006).

Experiments:
Type in all cases: in vivo
horse [1] = test: Heat lamp equine analgesia model; details: horse 1000 lbs, 0.2 mg/kg (100 mg) intravenously
Experimental: A horse (1000 lbs) in was administered guanabenz at a dose of 0.2 mg/kg (100 mg) intravenously at time point 0 (see FIG. 2). […] Note also that this response is maintained at full intensity for approximately 30 minutes and declines thereafter, and returns to control values by 6 hrs post administration. The solid circles (● - - - ●) show the increasing control latency in our heat lamp equine analgesia model after administration of guanabenz at indicated zero time.

horse [2] = test: Sedation / head ptosis response in the standing horse after intravenous administration
Experimental: As used herein by “rapid onset” is meant to include the time interval from administration of the active, e.g., guanabenz acetate, until the drug begins to take effect and produce the intended response, e.g., sedation and/or tranquilization and /or analgesia. For the compositions disclosed herein, this time interval typically ranges from between about 1 minute to about 30 minutes. As one of skill in the art can appreciate, the length of time for onset of action can vary, e.g., depending upon the route of administration, the species, age, size, and health status of the animal and the like. In the adult horse, for example, the clinical signs of sedation will begin to appear within 1–3 minutes following a single intravenous administration of about 100 mg of guanabenz or guanabenz acetate.
The term “analgesia” or “analgesic” is meant to include any conscious relief from a painful stimulus in an animal. In general, an analgesic is an agent that alleviates pain or reduces the sensation of pain without causing loss of consciousness. The term “long lasting” is generally meant to include the time interval from the onset of effect of the active until the effect has waned to a subclinical level. Thus, the establishment of this time interval is subjective but is readily ascertainable in the hands of the skilled artisan. Of course the duration of action of the active can vary, e.g., depending upon the route of administration, the species, age, size, and health status of the animal and the like. In the adult horse, for example, the clinical signs of sedation will begin to appear within 1–3 minutes following a single intravenous administration of about 100 mg of guanabenz or guanabenz acetate and the duration of action is up to about 4 hours.
In one embodiment, the present invention provides the surprising discovery that guanabenz acetate, after a single intravenous dose of about 0.2 milligrams per kilogram per horse, produces a rapid onset of sedation and/or, tranquilization and/or analgesia in the standing horse.
The solid circles (● - - - ●) show head ptosis measured as cm above ground level after rapid intravenous administration of guanabenz.

[3] = Blood glucose, urine glucose, urine production and urine specific gravity after intravenous administration; details: horse about 1000 lbs, 0.2 mg/kg (100 mg) intravenously
Experimental: Referring now to FIG. 3, a horse (about 1000 lbs) was administered guanabenz at a dose of 0.2 mg/kg (100 mg) intravenously at time point 0. […] The solid circles (● - - - ●) show blood glucose levels after rapid intravenous administration of guanabenz. Note also the increase in urine glucose levels after the administration of guanabenz. The open circles (◯-◯) show the corresponding urinary concentrations of glucose after this administration.
In FIG. 3b, note how the dose of 100 mg of guanabenz yields an increase in urine production as indicated by the increase in volume of urine collected. The solid circles (● - - - ●) show volume of urinary output after rapid intravenous administration of guanabenz. Note also in FIG. 3c, the decrease in specific gravity of the urine after the administration of the guanabenz. The solid circles (● - - - ●) show the corresponding urinary specific gravity values after this administration.

[4] = standing horse, single intravenous dose of about 0.2 mg/kg

N=C(N)N/N=C/c1c(Cl)cccc1Cl [guanabenz, 1-[2,6-dichlorobenzylidine-amino]-3-guanidine]
onset of analgesia response (desensitization to the heat lamp), FIG. 2 (horse [1]): very rapid onset
time for which the analgesia response is maintained at full intensity (horse [1]): approximately 30 minutes
time at which the analgesia response returns to control values (horse [1]; post administration): ≤ 6 h
head ptosis response (cm above ground level), FIG. 1 (horse [2]; horse about 1000 lbs, 0.2 mg/kg (100 mg) intravenously): very rapid onset
blood glucose levels, FIG. 3a [3]: transient increase
specific gravity of the urine, FIG. 3c [3]: decrease
urine glucose levels, FIG. 3a [3]: increase
urine production (volume of urine collected), FIG. 3b [3]: increase

N=C(N)N/N=C/c1c(Cl)cccc1Cl [guanabenz acetate]
duration for which sedation and head ptosis are maintained (horse [2]; [4]): up to four hours
onset of profound sedation and head ptosis (horse [2]; [4]): within one minute

COC(=O)[C@@H]1[C@H]2C[C@H]3c4[nH]c5ccccc5c4CCN3C[C@@H]2CC[C@@H]1O [yohimbine]
reversal of guanabenz tranquilization and sedation (head ptosis), FIG. 1 (horse [2]; horse given guanabenz 100 mg i.v., yohimbine 60 mg intravenously): rapid reversal
reversal of guanabenz acetate sedation and head ptosis response (horse [2]; horse, guanabenz acetate about 0.2 mg/kg i.v., antagonist given intravenously): rapidly reversible
